Counter-ions that a name gives are not always drawn. Non-standard residues stand in square brackets, D forms with d. Residues, ends and D or L forms follow the SMILES beside them. Dopa = N[C@@H](Cc1ccc(O)c(O)c1)C(=O)O
Assays:
[1] = physchem; assay type: physicochemical
Procedure: The volume of the solution in the bottle was adjusted to 5 ml, either by adding solvent, or be removing any residual solution, after which the bottle was tightly closed and left at 25° C. for stability observation. It is noted that throughout Example 4, the concentrations in the tables below were calculated taking into account the amount of solvent added or the solution removed, in which event, the calculations were performed regarding the 5 ml+(amount removed) as the volume of the solution. It is further noted that throughout this document, unless mentioned otherwise, the stability was measured using the manual visual inspection Bosch apparatus MIH DX, at a magnification of ×1.75.
(§1) The LD-Tyr free base, prepared according to Example 2, was added to a solvent, as detailed in Table 7 below, and neutralized by addition of NaOH. When maximum solubility was observed, the solution was filtered and then transferred to a bottle that was previously weighed and flushed with nitrogen. The volume of the solution in the bottle was adjusted to 5 ml, after which the bottle was tightly closed and left at 25° C. for stability observation.
(§2) When maximum solubility was observed, the solution was filtered and then transferred to a bottle that was previously weighed and flushed with nitrogen. The volume of the solution in the bottle was adjusted to 5 ml, after which the bottle was tightly closed and left at 25° C. for stability observation.
as §2, with “stored” for “left”
as §2, with “stored” for “left”
as §1, with “LD-Lys TFA salt,” for “The LD-Tyr free base,”, “1, and which comprises two equivalents of TFA,” for “2,”, “11” for “7”, “stored” for “left”
as §2, with “As detailed above regarding other solutions, with the LD-Tyr free base when” for “When”
as §1, with “LD-Lys HCl salt,” for “The LD-Tyr free base,”, “3,” for “2,”, “13” for “7”, “by the” for “by”

[2] = Human liver S9 stability test; assay type: in vitro ADME; details: substrate 10 μM, S9 protein 0.2 mg/mL; for Ke: slope of the percentage decrease of remaining compound, 0-60 minutes
Procedure: The stability of several LDAA compounds, in their TFA salt form, in human liver S9 was tested using commercially available liver S9. The substrate concentration was 10 μM, the S9 protein concentration was 0.2 mg/mL, and the incubation time 0, 5, 15, 30 and 60 minutes.
The results are described in Table 18, wherein the results describe the Ke, i.e., the slope of the percentage decrease of the remaining amount of the compound, measured at each of the above time points, such that the higher the Ke the faster the metabolism.

[3] = Analytical stability of LD-Tyr/CD formulations by HPLC (Tables 42-45c); details: for % retention, t = 1 week / Analytical stability result (HPLC), t = 1 week / % retention, t = 2 weeks / Analytical stability result (HPLC), t = 2 weeks: NB 144-4 formulation; for Analytical stability result (HPLC), t = 1 week / Analytical stability result (HPLC), t = 2 weeks: in mg/mL (unit assumed)
Procedure: It is noted that the recovery % compared the amount of any given material as measured at t=28 h (or any other presented value) compared to the amount of that material, at measured at t=0.

[4] = solvent 0.1% NaBis in WFI, pH 1.8
[5] = solvent 0.1% NaBis in WFI, pH 6.92
[6] = solvent 0.1% NaBis in WFI, pH 6.99
[7] = solvent 0.1% NaBis in WFI, pH 7.06
[8] = solvent […] CD solution, pH 8.48
[9] = solvent DMSO:(0.1% NaBis in WFI) (70:30), pH 5.40
[10] = solvent NMP:(0.1% NaBis in WFI) (70:30), pH 4.62
[11] = solvent […] CD solution in WFI, pH 8.35 (titer/NaOH)
[12] = NB 144-32 (F1), 37% LD-Tyr/0.5% CD
[13] = NB 144-34 (F2), 44% LD-Tyr/0.5% CD
[14] = NB 144-39 (F3), 30% LD-Tyr/0.5% CD

N=C(N)NCCC[C@H](NC(=O)[C@@H](N)Cc1ccc(O)c(O)c1)C(=O)O [LD-Arg TFA salt, Levodopa Arginine TFA Salt]
Appearance ([1]; 0.1% NaBis in WFI, pH 1.8, 610 mg/ml salt): clear
Appearance ([1]; 0.1% NaBis in WFI, pH 6.92, 200 mg/ml salt): clear
Appearance ([1]; 0.1% NaBis in WFI, pH 6.99, 420 mg/ml salt): clear
Appearance ([1]; 0.1% NaBis in WFI, pH 7.06, 200 mg/ml salt): clear
Appearance ([1]; WFI, pH 1.7, 600 mg/ml salt): clear
Appearance ([1]; WFI, pH 7.2, 200 mg/ml salt): clear
Appearance ([1]; WFI, pH 7.2, 420 mg/ml salt): clear
Appearance ([1]; […] CD solution, pH 8.48, 180 mg/ml salt): clear
LD-Arg TFA salt concentration [1, 4]: 610 mg/mL
LD-Arg free base Concentration [1, 4]: 370 mg/mL
LD-Arg TFA salt concentration [1, 5]: 200 mg/mL
LD-Arg free base Concentration [1, 5]: 120 mg/mL
LD-Arg TFA salt concentration [1, 6]: 420 mg/mL
LD-Arg free base Concentration [1, 6]: 260 mg/mL
LD-Arg TFA salt concentration [1, 7]: 200 mg/mL
LD-Arg free base Concentration [1, 7]: 120 mg/mL
LD-Arg TFA salt concentration ([1]; solvent WFI, pH 1.7): 600 mg/mL
LD-Arg free base Concentration ([1]; solvent WFI, pH 1.7): 370 mg/mL
LD-Arg TFA salt concentration ([1]; solvent WFI, pH 7.2 (line r9)): 420 mg/mL
LD-Arg free base Concentration ([1]; solvent WFI, pH 7.2 (line r9)): 260 mg/mL
LD-Arg TFA salt concentration ([1]; solvent WFI, pH 7.2 (line r17)): 200 mg/mL
LD-Arg free base Concentration ([1]; solvent WFI, pH 7.2 (line r17)): 120 mg/mL
LD-Arg TFA salt concentration [1, 8]: 180 mg/mL
LD-Arg free base Concentration [1, 8]: 110 mg/mL
Ke [2]: 0.1268
metabolism in human liver S9 (in words) [2]: rapidly metabolized

NC(=O)C[C@H](NC(=O)[C@@H](N)Cc1ccc(O)c(O)c1)C(=O)O [LD-Asn TFA salt, Levodopa Asparagine TFA Salt] (H-[Dopa]-Asn-OH)
Ke [2]: 0.0015

N[C@@H](Cc1ccc(O)c(O)c1)C(=O)N[C@@H](CC(=O)O)C(=O)O [LD-Asp TFA salt, Levodopa Aspartic Acid] (H-[Dopa]-Asp-OH)
Ke [2]: 0.0008

N[C@@H](Cc1ccc(O)c(O)c1)C(=O)N[C@@H](Cc1ccc(O)cc1)C(=O)O [LD-Tyr TFA salt, Levodopa Tyrosine TFA Salt] (H-[Dopa]-Tyr-OH)
Appearance ([1]; 0.1% sodium bisulfite (Na Bis) in WFI, pH 7.22 (titer/NaOH), 205 mg/ml salt, TFA Salt): precipitated
solubility ([1]; 0.1% sodium bisulfite in WFI, 25 °C, aqueous buffer, thermodynamic from solid, solvent 0.1% sodium bisulfite (Na Bis) in WFI, pH 7.22 (titer/NaOH), precipitated during titration): ≤ 205 mg/mL
Appearance ([1]; DMSO:(0.1% NaBis in WFI) (70:30), pH 5.40, 200 mg/ml salt): clear
Appearance ([1]; DMSO, 184 mg/ml salt): clear
Appearance ([1]; NMP:(0.1% NaBis in WFI) (70:30), pH 4.62, 200 mg/ml salt): clear
Appearance ([1]; NMP, 200 mg/ml salt): Clear
Appearance ([1]; WFI, pH ~2, 210 mg/ml salt): clear
Appearance ([1]; […] CD solution in WFI, pH 8.35, 178 mg/ml salt): clear
LD-Tyr free base Concentration ([1]; solvent 0.1% sodium bisulfite (Na Bis) in WFI, pH 7.22 (titer/NaOH), precipitated during titration): 160 mg/mL
LD-Tyr TFA salt concentration ([1]; solvent DMSO): 184 mg/mL
LD-Tyr free base Concentration ([1]; solvent DMSO): 140 mg/mL
LD-Tyr TFA salt concentration [1, 9]: 200 mg/mL
LD-Tyr free base Concentration [1, 9]: 150 mg/mL
LD-Tyr TFA salt concentration ([1]; solvent NMP): 200 mg/mL
LD-Tyr free base Concentration ([1]; solvent NMP): 150 mg/mL
LD-Tyr TFA salt concentration [1, 10]: 200 mg/mL
LD-Tyr free base Concentration [1, 10]: 150 mg/mL
LD-Tyr TFA salt concentration ([1]; solvent Water for injection (WFI), pH ~2): 210 mg/mL
LD-Tyr free base Concentration ([1]; solvent Water for irrigation (WFI), pH ~2): 160 mg/mL
LD-Tyr TFA salt concentration [1, 11]: 178 mg/mL
LD-Tyr free base Concentration [1, 11]: 135 mg/mL
Ke [2]: 0.0217
metabolism in human liver S9 (in words) [2]: rapidly metabolized
% retention, t = 1 week ([3]; Storage temp. 2-8° C.): 98.8%
Analytical stability result (HPLC), t = 1 week ([3]; Storage temp. 2-8° C.): 323.22
% retention, t = 2 weeks ([3]; Storage temp. 2-8° C.): 99.7%
Analytical stability result (HPLC), t = 2 weeks ([3]; Storage temp. 2-8° C.): 326.20
% retention, t = 1 week ([3]; Storage temp. 25° C.): 101.1%
Analytical stability result (HPLC), t = 1 week ([3]; Storage temp. 25° C.): 330.81
% retention, t = 2 weeks ([3]; Storage temp. 25° C.): 97.3%
Analytical stability result (HPLC), t = 2 weeks ([3]; Storage temp. 25° C.): 318.15
% retention, t = 1 week ([3]; Storage temp. 40° C.): 93.0%
Analytical stability result (HPLC), t = 1 week ([3]; Storage temp. 40° C.): 304.24
Concentration (HPLC), t = 0 [3, 12]: 364.15
Concentration (HPLC), t = 28 h at 32° C. [3, 12]: 352.22
Concentration (HPLC), t = 0 [3, 13]: 437.98
Concentration (HPLC), t = 28 h at 32° C. [3, 13]: 424.09
Concentration (HPLC), t = 0 [3, 14]: 295.42
Concentration (HPLC), t = 28 h at 32° C. [3, 14]: 291.94

From patent US20220362386A1, “LIQUID COMPOSITIONS COMPRISING A LEVODOPA AMINO ACID CONJUGATE AND USES THEREOF” (NeuroDerm, Ltd., priority 2019, published 2022)
